Measurements taken from US9890368B2, “Polypeptide fragments comprising endonuclease activity and their use” (priority 2008, dated 2018).

What was measured:
PA-Nter (SEQ ID NO: 22) = PA-Nter (SEQ ID NO: 22) (Influenza A virus, UniProt P31343, G154E); type: binding, Influenza A virus A/Victoria/3/1975 (H3N2)
[1] = target: PA-Nter (SEQ ID NO: 22) endonuclease (Influenza A virus, UniProt P31343, G154E); type: biochemical, Influenza A virus A/Victoria/3/1975 (H3N2)

Molecule | apparent melting temperature (PA-Nter (SEQ ID NO: 22)) | effect on thermal stability of metal-free enzyme (PA-Nter (SEQ ID NO: 22)) | thermal stability of PA-Nter in the presence of MnCl2 (PA-Nter (SEQ ID NO: 22)) | inhibition of endonuclease activity on both RNA and DNA [1] | increase in thermal stability upon addition of divalent cation (PA-Nter (SEQ ID NO: 22))
manganese ions | 57 °C | – | – | – | –
O=C(O)C(=O)CC(=O)c1ccccc1 [DPBA, 2,4-Dioxo-4-phenylbutanoic acid] | 65 °C | no effect | further stabilizes | inhibited in a dose dependent manner | –
calcium | – | – | – | – | to a lesser extent
magnesium ions | – | – | – | – | to a lesser extent
